Source: US20140271734A1, “BILE ACID RECYCLING INHIBITORS FOR TREATMENT OF BARRETT'S ESOPHAGUS AND GASTROESOPHAGEAL REFLUX DISEASE” (LUMENA PHARMACEUTICALS, INC., priority 2013, published 2014)

What was measured:
[1] = test system: fecal total bile acid (FBA); test: Fecal bile acids in dogs, LUM001 daily; assay type: in vivo, beagle dogs; details: 14 Days; for Weight-Adjusted Fecal Total Bile Acids Excretion: n=8
Description: (§1) Healthy female and male beagle dogs in the age range of 8 to 10 months were used. The animals were acclimated for at least four weeks before dose administration. Four female and four male dogs per dose group (groups 2-5) were given single daily doses of LUM001 at 1, 4, 12 and 30 mg free form/kg for 13 days. Animals in the control group (group 1) were given the same number of empty capsules as the animals of group 5 to treat all dose groups the same.
Fecal samples were collected to determine the fecal total bile acid (FBA) concentration for each animal. Fecal collections were made during the final 72 hours of the study, for three consecutive 24-hour periods between 9:00 am and 10:00 am each day, prior to dosing and feeding. The separate daily collections from each dog were weighed, combined and homogenized with distilled water in a food processor to generate a homogeneous slurry. Homogenate (1.4 g) was extracted in a final concentration ratio of 2:0.6 of 50% (v/v) tertiary butanol/distilled water for 45 minutes in a 37° C. water bath and subjected to centrifugation for 13 minutes at 2000×g. The concentration of bile acids (mmolesgram homogenate) was determined using a 96-well enzymatic assay system. Aliquots of the fecal extracts (20 μl) were added to two sets of triplicate wells in a 96 well assay plate. A standardized sodium taurocholate solution and a standardized fecal extract solution (previously made from pooled samples and characterized for its bile acid concentration) were also analyzed for assay quality control. Aliquots of sodium taurocholate (20 μl), were serially diluted to generate a standard curve containing 30-540 nmoles/well. A 230 μl aliquot of reaction mixture containing 1M hydrazine hydrate, 0.1 M pyrophosphate and 0.46 mg/ml NAD was added to each well. Subsequently, a 50 μl aliquot of either 3a-hydroxysteroid dehydrogenase enzyme (HSD; 0.8 units/ml) or assay buffer (0.1 M sodium pyrophosphate) was added to one each of the two sets of triplicates. Following 60 minutes of incubation at room temperature, the optical density at 340 nm was measured and the mean of each set of triplicate samples was calculated. The difference in optical density±HSD enzyme was used to determine the bile acid concentration (mM) of each sample based on the sodium taurocholate standard curve. The bile acid concentration of the extract (mmolesgram homogenate), the total weight of the fecal homogenate (grams) and the body weight of the dogs (kg) were used to calculate the corresponding FBA concentration in mmoles/kg/day for each animal. All reagents used for the assay were obtained from Sigma Chemical Co., St. Louis, Mo. (HSD—catalog # H-1506; NAD—catalog # N1636; sodium taurocholate—catalog # T-4009). A one-tailed, paired Student's t-test was used to determine the statistical significance of changes in FBA concentration in treated animals compared to pretreatment values and between treatment groups.

[2] = test system: Cholesterol 7-α hydroxylase; test: Cholesterol 7-α hydroxylase activity in liver microsomes of treated dogs; assay type: in vivo, beagle dogs; details: 14 Days; for Cholesterol 7a-hydroxylase: n=8
Description: as §1
At the end of the study, animals were anesthetized, their livers removed and flash frozen and stored at −80 C. Homogenates of three gram liver tissue samples were prepared in 25 ml homogenization buffer [0.1 M potassium phosphate buffer, pH 7.2, containing 0.1 M sucrose, 50 mM KCl, 50 mM NaF, 5 mM ethylene glycol-bis((3-aminoethyl ether)-N,N,N′,N′-tetraacetic acid (EGTA), 1 mM EDTA, 3 mM dithiothreitol (DTT), and 1 mM phenylmethylsulfonyl fluoride (PMSF)]. A microsomal fraction was prepared by centrifugation at 10,000×g for ten minutes. The supernatant was subjected to centrifugation at 105,000×g for two hours. The microsomal fraction was resuspended in a 0.1 M Na tetrapyrophosphate buffer (pH 10), with 50 mM NaF, and 1 mM EDTA, and subjected to centrifugation for one hour at 105,000×g. The microsomal fraction was resuspended in the homogenization buffer, and assayed for protein content by Coomassie Protein Plus Assay reagent.
Liver microsomes (1 mg) or 7-α-hydroxycholesterol standard solutions were preincubated for five minutes at 37° C. in a rocking water bath with 500 μl 5× buffer, 1.7 ml water, and 50 μl 0.1% (w/v) cholesterol as substrate in excess. The 5× buffer consists of 0.42 M Na2HPO4, 0.25 mM NaF, 0.08 M KH2PO4, 5 mM EDTA and 10 mM DTT. The reaction tubes were incubated at 37° C. in a rocking water bath throughout the remainder of the assay protocol, with cessation of rocking only for the period of time needed to add solutions. After the preincubation period, 250 μl of 10 mM NADPH was added and incubated for 5 minutes to allow enzymatic conversion of the cholesterol substrate to 7-α-hydroxycholesterol by endogenous 7-α-hydroxylase. The reaction was stopped by addition of 75 μl of 20% sodium cholate.
After four minutes, 25 μl of 100 μM 20-α-hydroxycholesterol was added to each tube as an internal recovery standard. The tubes were allowed to rock briefly in the water bath to mix, then 40 μl of 25 U/ml cholesterol oxidase was added and the tubes were incubated for ten minutes to convert 7-α-hydroxycholesterol and 20-α-hydroxycholesterol to their ketone forms, 7-α-hydroxycholesten-3-one and 20-α-hydroxycholesten-3-one. After the enzymatic reactions were completed, the ketone products were isolated by four sequential extractions in 20, 10, 10 and 10 ml petroleum ether, respectively. The collected volumes were evaporated to dryness under a flow of nitrogen gas between each extraction step using a heat block set at 50° C. The final dried samples were resuspended in 125 μl mobile phase solution consisting of 70:30 acetonitrile/methanol for analysis by reversed phase HPLC. Chromatography was performed on a 4.6×250 mm Beckman Ultrosphere ODS reverse phase column in mobile phase solution. The analyte, 7-α-hydroxy-4-cholesten-3-one, is quantified by absorption at 254 nm using the internal standard 20-α-hydroxy-4-cholesten-3-one to control for extraction efficiency.

CCCCC1(CCCC)CS(=O)(=O)c2ccc(N(C)C)cc2[C@@H](c2ccc(OCc3ccc(C[N+]45CCN(CC4)CC5)cc3)cc2)[C@H]1O [LUM001]
Weight-Adjusted Fecal Total Bile Acids Excretion, % change from vehicle group ([1]; 1 mg/kg/day): (+63) %
Weight-Adjusted Fecal Total Bile Acids Excretion ([1]; 1 mg/kg/day): 96 ± 9 µmol/day/kg
Weight-Adjusted Fecal Total Bile Acids Excretion, % change from vehicle group ([1]; 4 mg/kg/day): (+137) %
Weight-Adjusted Fecal Total Bile Acids Excretion ([1]; 4 mg/kg/day): 140 ± 6 µmol/day/kg
Weight-Adjusted Fecal Total Bile Acids Excretion, % change from vehicle group ([1]; 12 mg/kg/day): (+158) %
Weight-Adjusted Fecal Total Bile Acids Excretion ([1]; 12 mg/kg/day): 152 ± 13 µmol/day/kg
Weight-Adjusted Fecal Total Bile Acids Excretion, % change from vehicle group ([1]; 30 mg/kg/day): (+183) %
Weight-Adjusted Fecal Total Bile Acids Excretion ([1]; 30 mg/kg/day): 167 ± 15 µmol/day/kg
Cholesterol 7a-hydroxylase, % change from vehicle group ([2]; 1 mg/kg/day): (+28) %
Cholesterol 7a-hydroxylase ([2]; 1 mg/kg/day): 114 ± 18 pmol/mg/min
Cholesterol 7a-hydroxylase, % change from vehicle group ([2]; 4 mg/kg/day): (+101) %
Cholesterol 7a-hydroxylase ([2]; 4 mg/kg/day): 179 ± 22 pmol/mg/min
Cholesterol 7a-hydroxylase, % change from vehicle group ([2]; 12 mg/kg/day): (+219) %
Cholesterol 7a-hydroxylase ([2]; 12 mg/kg/day): 284 ± 41 pmol/mg/min
Cholesterol 7a-hydroxylase, % change from vehicle group ([2]; 30 mg/kg/day): (+378) %
Cholesterol 7a-hydroxylase ([2]; 30 mg/kg/day): 425 ± 58 pmol/mg/min
